Data published in patent publication US20240173419A1, “CDK2 DEGRADERS AND USES THEREOF” (Kymera Therapeutics, Inc., priority 2022, published 2024).

Biological target: T1, CDK2 (Homo sapiens, UniProt P24941)
T1 construct: endogenous in cells; host or cells: MKN1 cells
Test: CDK2 degradation in MKN1 cells (AlphaLISA)
Format: cell-based
Design: key to CDK2 degradation 14 h: Mean external-Abs DC50 (nM): A (<100 nM); B (≥100-500 nM); C (>500-1000 nM); D (>1000 nM); E (not achieved)
Details: for DC50: read-out: CDK2 degradation 14 h: Mean external-Abs DC50; for Dmax: MKN-1, 14 h incubation
In short: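 MKN1 cells (2e4/well) treated 14 h at 37° C with 11-point 1:5 dilutions (0.001 nM-10 μM, 0.1% DMSO). CDK2 in lysates quantified by AlphaLISA, no-cell background subtracted; DC50 from four-parameter logistic fit.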

| SMILES | CDK2 degradation 14 h: Average Dmax % (14 h incubation) | DC50 (14 h incubation) [nM] | Dmax [%] | CDK2 degradation 14 h: Mean external-Abs DC50 (nM) (14 h incubation) |
| --- | --- | --- | --- | --- |
| Cc1cc(S(=O)(=O)NC2CC(N3CCN(CC4CCN(c5cccc(C6CCC(=O)NC6=O)c5)CC4)CC3)C2)ccc1Nc1ncc(C(F)(F)F)c(N2CCCC(C)(O)C2)n1 (stereo not shown) [I-718] | A (A (>75% o)) | 100 to 500 |  |  |
| Cc1cc(S(=O)(=O)NC2CCC(CN3CCN(c4ccc(C5CCC(=O)NC5=O)cc4Cl)CC3)CC2)ccc1Nc1ncc(C(F)(F)F)c(N2CCCC(C)(O)C2)n1 (stereo not shown) [I-807] | A (A (>75% o)) | < 100 |  |  |
| Cc1cc(S(=O)(=O)NC2(C)CCN(CC3(F)CCN(c4ccc(C5CCC(=O)NC5=O)cc4)CC3)CC2)ccc1Nc1ncc(C(F)(F)F)c(N2CCC[C@](C)(O)C2)n1 (stereo partly shown) [I-808] | A (A (>75% o)) | < 100 |  |  |
| Cc1cc(S(=O)(=O)N[C@H]2CC[C@H](CN3CCN(c4ccc(C5CCC(=O)NC5=O)cc4F)C[C@@H]3C)CC2)ccc1Nc1ncc(C(F)(F)F)c(N2CCC[C@](C)(O)C2)n1 (stereo partly shown) [I-810] | A (A (>75% o)) | < 100 |  |  |
| Cc1cc(S(=O)(=O)NC2CCC(CN3CCN(c4ccc(C5CCC(=O)NC5=O)cc4C)CC3)CC2)ccc1Nc1ncc(C(F)(F)F)c(N2CCCC(C)(O)C2)n1 (stereo not shown) [I-811] | A (A (>75% o)) | < 100 |  |  |
| Cc1cc(S(=O)(=O)NC2CCC(CN3CCN(c4ccc(C5CCC(=O)NC5=O)c(C)c4F)CC3)CC2)ccc1Nc1ncc(C(F)(F)F)c(N2CCCC(C)(O)C2)n1 (stereo not shown) [I-812] | A (A (>75% o)) | < 100 |  |  |
| Cc1cc(S(=O)(=O)NC2CCC(CN3CCN(c4ccc5c(c4F)n(C)c(=O)n5C4CCC(=O)NC4=O)CC3)CC2)ccc1Nc1ncc(C(F)(F)F)c(N2CCCC(C)(O)C2)n1 (stereo not shown) [I-813] | A (A (>75% o)) | < 100 |  |  |
| Cc1cc(S(=O)(=O)NC2(C)CCC(CN3CCN(c4ccc(C5CCC(=O)NC5=O)cc4F)CC3)CC2)ccc1Nc1ncc(C(F)(F)F)c(N2CCC[C@](C)(O)C2)n1 (stereo partly shown) [I-814] | A (A (>75% o)) | < 100 |  |  |
| Cc1cc(S(=O)(=O)NC2CCC(F)(CN3CCN(c4ccc(C5CCC(=O)NC5=O)cc4F)CC3)CC2)ccc1Nc1ncc(C(F)(F)F)c(N2CCC[C@](C)(O)C2)n1 (stereo partly shown) [I-815] | A (A (>75% o)) | < 100 |  |  |
| COc1cc(N2CCN(CC3CCC(NS(=O)(=O)c4ccc(Nc5ncc(C(F)(F)F)c(N6CCCC(C)(O)C6)n5)c(C)c4)CC3)CC2)c(F)cc1NC1CCC(=O)NC1=O (stereo not shown) [I-816] | A (A (>75% o)) | < 100 |  |  |
| O=C1CCC(c2ccc(N3CCN(C[C@H]4CC[C@H](NS(=O)(=O)c5ccc(Nc6ncc(C(F)(F)F)c(-c7cnn(C8CCOCC8)c7)n6)c(F)c5)CC4)CC3)cc2Cl)C(=O)N1 (stereo partly shown) [I-818] | A (A (>75% o)) | < 100 |  |  |
| Cc1cc(S(=O)(=O)C2CC3(CCN(CC4CCN(c5cccc6c5n(C)c(=O)n6C5CCC(=O)NC5=O)CC4)CC3)C2)ccc1Nc1ncc(C(F)(F)F)c(N2CCCC(C)(O)C2)n1 (stereo not shown) [I-819] | B (B (>50% -75%)) | 500 to 1000 |  |  |
| Cc1cc(S(=O)(=O)NC2CCC(CN3CCN(c4ccc(NC5CCC(=O)NC5=O)cc4F)CC3)CC2)ccc1Nc1ncc(C(F)(F)F)c(N2CCCC(C)(O)C2)n1 (stereo not shown) [I-822] | A (A (>75% o)) | < 100 |  |  |
| Cc1cc(S(=O)(=O)N2CCC(CN(C)C3CCN(c4cccc5c4n(C)c(=O)n5C4CCC(=O)NC4=O)CC3F)CC2)ccc1Nc1ncc2cc(Cl)c(=O)n(C3CCCC3)c2n1 (stereo not shown) [I-823] | A (A (>75% o)) | < 100 |  |  |
| Cc1cc(S(=O)(=O)N2CC3(CCC(CN4CCN(c5ccc6c(c5F)n(C)c(=O)n6C5CCC(=O)NC5=O)CC4)CC3)C2)ccc1Nc1ncc2cc(Cl)c(=O)n(C3CCCC3)c2n1 (stereo not shown) [I-824] | D (D (<25%)) |  |  | E |

Continued, values first:

| CDK2 degradation 14 h: Average Dmax % (14 h incubation) | DC50 (14 h incubation) [nM] | Dmax [%] | CDK2 degradation 14 h: Mean external-Abs DC50 (nM) (14 h incubation) | SMILES |
| --- | --- | --- | --- | --- |
| A (A (>75% o)) | < 100 |  |  | Cc1cc(S(=O)(=O)NC2CC(N3CCN(CC4CCN(c5ccc(C6CCC(=O)NC6=O)cc5)CC4)CC3)C2)ccc1Nc1ncc(C(F)(F)F)c(N2CCCC(C)(O)C2)n1 (stereo not shown) [I-719] |
| A (A (>75% o)) | < 100 |  |  | Cc1cc(S(=O)(=O)NC2CC(N3CCN(CC4CCN(c5cc(NC6CCC(=O)NC6=O)ccc5Cl)CC4)CC3)C2)ccc1Nc1ncc(C(F)(F)F)c(N2CCCC(C)(O)C2)n1 (stereo not shown) [I-720] |
| A (A (>75% o)) | < 100 |  |  | Cc1cc(S(=O)(=O)NC2CC(N3CCN(CC4CCN(c5ccc(N6CCC(=O)NC6=O)c(Cl)c5)CC4)CC3)C2)ccc1Nc1ncc(C(F)(F)F)c(N2CCCC(C)(O)C2)n1 (stereo not shown) [I-721] |
| A (A (>75% o)) | < 100 |  |  | Cc1cc(S(=O)(=O)NC2CC(N3CCN(CC4CCN(c5ccc(Cl)c(N6CCC(=O)NC6=O)c5)CC4)CC3)C2)ccc1Nc1ncc(C(F)(F)F)c(N2CCCC(C)(O)C2)n1 (stereo not shown) [I-722] |
|  | < 100 | > 75 |  | Cc1cc(S(=O)(=O)NC2CCC(CN3CCN(c4ccc(C5CCC(=O)NC5=O)c(Cl)c4)CC3)CC2)ccc1Nc1ncc(C(F)(F)F)c(N2CCC[C@](C)(O)C2)n1 (stereo partly drawn) [I-745, N-[4-[[4-[3-chloro-4-(2,6-dioxo-3-piperidyl)phenyl]piperazin-1-yl]methyl]cyclohexyl]-4-[[4-[(3S)-3-hydroxy-3-methyl-1-piperidyl]-5-(trifluoromethyl)pyrimidin-2-yl]amino]-3-methyl-benzenesulfonamide] |
|  | < 100 | > 75 |  | Cc1cc(S(=O)(=O)N[C@H](C)CO[C@H]2CC[C@H](CN3CCN(c4cccc5c4n(C)c(=O)n5C4CCC(=O)NC4=O)CC3)CC2)ccc1Nc1ncc(C(F)(F)F)c(N2CCC[C@](C)(O)C2)n1 (stereo partly drawn) [I-766, N-[(1R)-2-[4-[[4-[1-(2,6-dioxo-3-piperidyl)-3-methyl-2-oxo-benzimidazol-4-yl]piperazin-1-yl]methyl]cyclohexoxy]-1-methyl-ethyl]-4-[[4-[(3S)-3-hydroxy-3-methyl-1-piperidyl]-5-(trifluoromethyl)pyrimidin-2-yl]amino]-3-methyl-benzenesulfonamide] |
| A (A (>75% o)) | < 100 |  |  | Cc1cc(S(=O)(=O)NC2CCC(CN3CCN(c4cccc(NC5CCC(=O)NC5=O)c4)CC3)CC2)ccc1Nc1ncc(C(F)(F)F)c(N2CCCC(C)(O)C2)n1 (stereo not shown) [I-775] |
| A (A (>75% o)) | < 100 |  |  | Cc1cc(S(=O)(=O)NC2CC(N3CCN(CC4CCN(c5cccc6c5n(C)c(=O)n6C5CCC(=O)NC5=O)CC4)CC3)C2)ccc1Nc1ncc(C(F)(F)F)c(N2CCCCC2)n1 (stereo not shown) [I-795] |
| A (A (>75% o)) | < 100 |  |  | Cc1cc(S(=O)(=O)N[C@H]2C[C@H](N3CCN(CC4CCN(c5cccc6c5n(C)c(=O)n6C5CCC(=O)NC5=O)CC4)CC3)C2)ccc1Nc1ncc(C(F)(F)F)c(N2CCC[C@H](C(F)F)C2)n1 (stereo partly shown) [I-796] |
| A (A (>75% o)) | < 100 |  |  | Cc1cc(S(=O)(=O)N[C@H]2C[C@H](N3CCN(CC4CCN(c5cccc6c5n(C)c(=O)n6C5CCC(=O)NC5=O)CC4)CC3)C2)ccc1Nc1ncc(C(F)(F)F)c(N2CCC[C@@H](C(F)F)C2)n1 (stereo partly shown) [I-797] |
| A (A (>75% o)) | < 100 |  |  | Cc1cc(S(=O)(=O)NC2CCC(CN3CCN(c4ccc(C5CCC(=O)NC5=O)cc4)CC3)CC2)ccc1Nc1ncc(C(F)(F)F)c(N2CCCC(C)(O)C2)n1 (stereo not shown) [I-799] |
| A (A (>75% o)) | < 100 |  |  | Cc1cc(S(=O)(=O)NC2CCC(CN3CCN(c4cc(Cl)c(C5CCC(=O)NC5=O)cc4F)CC3)CC2)ccc1Nc1ncc(C(F)(F)F)c(N2CCCC(C)(O)C2)n1 (stereo not shown) [I-800] |
| A (A (>75% o)) | < 100 |  |  | Cc1cc(S(=O)(=O)NC2(C)CCN(CC3CCN(c4ccc(C5CCC(=O)NC5=O)c(Cl)c4)CC3)CC2)ccc1Nc1ncc(C(F)(F)F)c(N2CCC[C@](C)(O)C2)n1 (stereo partly shown) [I-801] |
| A (A (>75% o)) | < 100 |  |  | Cc1cc(S(=O)(=O)NC23CCC(CN4CCN(c5ccc(C6CCC(=O)NC6=O)cc5)CC4)(CC2)CC3)ccc1Nc1ncc(C(F)(F)F)c(N2CCC[C@](C)(O)C2)n1 (stereo partly shown) [I-802] |
| A (A (>75% o)) | < 100 |  |  | Cc1cc(S(=O)(=O)NC2(C)CCC(CN3CCN(c4ccc(C5CCC(=O)NC5=O)cc4F)CC3)CC2)ccc1Nc1ncc(C(F)(F)F)c(N2CCC[C@](C)(O)C2)n1 (stereo partly shown) [I-803] |
| A (A (>75% o)) | < 100 |  |  | Cc1cc(S(=O)(=O)N[C@@H]2CCN(CC3CCN(c4ccc(C5CCC(=O)NC5=O)cc4F)CC3)C[C@H]2F)ccc1Nc1ncc(C(F)(F)F)c(N2CCC[C@](C)(O)C2)n1 (stereo partly shown) [I-804] |
| A (A (>75% o)) | < 100 |  |  | Cc1cc(S(=O)(=O)NC2CCC(CN3CCN(c4cc(F)c(C5CCC(=O)NC5=O)cc4C)CC3)CC2)ccc1Nc1ncc(C(F)(F)F)c(N2CCCC(C)(O)C2)n1 (stereo not shown) [I-806] |
